Results taken from patent US20250205256A1 (GH RESEARCH IRELAND LIMITED, priority 2022, published 2025).

Experiment: Pharmacokinetics after single inhaled dose of 5-MeO-DMT (LC-MS/MS)
Format: in vivo, human
Set-up: blood concentration relative to LLOQ: dose or concentration left out as unconfirmed
Details: metabolite after inhaled 5-MeO-DMT
Experimental: Blood samples were obtained at 1; 2; 4; 7; 10; 15; 20; 30; 45 min and 1; 1.5; 2; 3; 4 hours after administration.
PK parameters were generated by algebraic analysis of the concentration versus time plots for each individual. The analysis was carried out using the software Phoenix WinNonlin 6.3.

CN(C)CCc1c[nH]c2ccc(O)cc12 [bufotenine]
blood concentration observations with uptitration scheme: Substantially similar observations | blood concentration relative to LLOQ: Only in few samples, concentrations were above the lower level of quantification
